The source of these data is patent US20220089568A1 (Janssen Biotech, Inc., priority 2019, published 2022).

For assay [1], the system named is MOLM-13 cells. As to the kind of experiment: MOLM-13 Cellular Assay. In kind it is cell-based. Particulars: Homo sapiens, 72 hours exposure, cell viability by CellTiter-Glo. The method, then:
The day prior to assay set-up, cells were pelleted, resuspended in fresh media, counted, and cells were plated at 0.4×10^6 cell/mL in a T150 flask. […] Cells were exposed to different concentrations of test compounds at 37° C., 5% CO2 for 72 hours immediately after seeding.
A general note: Cellular ATP, detected with luciferase, serves as a proxy for viable cell number.

Assay [2] concerns the target T1, human DHODH (Homo sapiens, UniProt Q02127).
T1 construct: purchased Proteros PR-0044
The assay can be described thus: DHODH Enzymatic Assay. In kind it is biochemical. Particulars: purified human DHODH; DCIP absorbance, end-point mode. In outline:
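Purified human DHODH activity read as absorbance of DCIP, the terminal electron acceptor, in […] pH 7.5, 150 mM NaCl, 0.5 mM EDTA, 0.1% Triton X-100. Reaction started with a substrate mix of 20 mM DHO, 5 mM CoQ6 and 1 mM DCIP in assay buffer.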

Structures are written as SMILES. A value given as a limit tells only on which side of the number the result lay.

T1 sequence (Q02127 whole entry): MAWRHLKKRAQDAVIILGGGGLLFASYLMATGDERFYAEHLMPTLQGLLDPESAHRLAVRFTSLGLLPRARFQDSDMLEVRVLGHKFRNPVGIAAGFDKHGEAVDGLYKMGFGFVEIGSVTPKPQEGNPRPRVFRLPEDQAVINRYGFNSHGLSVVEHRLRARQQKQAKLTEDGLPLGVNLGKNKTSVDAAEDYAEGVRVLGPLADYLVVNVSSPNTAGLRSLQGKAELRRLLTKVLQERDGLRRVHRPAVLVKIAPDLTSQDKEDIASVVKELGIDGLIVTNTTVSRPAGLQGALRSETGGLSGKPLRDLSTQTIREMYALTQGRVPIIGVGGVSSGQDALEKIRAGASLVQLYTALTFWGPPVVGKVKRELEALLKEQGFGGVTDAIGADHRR

Take `CCn1c(CO)nn(-c2nc(O[C@@H](C)C(F)(F)F)c(C(=O)Nc3cc(C)cnc3F)cc2F)c1=O` [Example 36, (S)-6-(4-Ethyl-3-(hydroxymethyl)-5-oxo-4,5-dihydro-1H-1,2,4-triazol-1-yl)-5-fluoro-N-(2-fluoro-5-methylpyridin-3-yl)-2-((1,1,1-trifluoropropan-2-yl)oxy)nicotinamide]: the figures for the EC50 in assay [1] and in assay [2] were above 100 nM and 58.6 nM, respectively.

For the molecule `CCn1c(CO)nn(-c2nc(O[C@@H](C)C(F)(F)F)c(C(=O)Nc3c(Cl)ccc(=O)n3C)cc2F)c1=O` [Example 64, (S)-N-(3-Chloro-1-methyl-6-oxo-1,6-dihydropyridin-2-yl)-6-(4-ethyl-3-(hydroxymethyl)-5-oxo-4,5-dihydro-1H-1,2,4-triazol-1-yl)-5-fluoro-2-((1,1,1-trifluoropropan-2-yl)oxy)nicotinamide], the values for the EC50 in assay [1] and in assay [2] were above 100 nM and 101 nM, respectively.

Regarding `CCn1c(CO)nn(-c2nc(O[C@@H](C)C(F)(F)F)c(C(=O)Nc3c(C)n[nH]c3C)cc2F)c1=O` [Example 49, (S)-N-(3,5-Dimethyl-1H-pyrazol-4-yl)-6-(4-ethyl-3-(hydroxymethyl)-5-oxo-4,5-dihydro-1H-1,2,4-triazol-1-yl)-5-fluoro-2-((1,1,1-trifluoropropan-2-yl)oxy)nicotinamide], the half-maximal effective concentration (EC50) (commonly the concentration at which the effect is half-maximal) in assay [1] is 21.1 nM; in assay [2] it was 6.4 nM.

With `CCn1c(CO)nn(-c2nc(O[C@@H](C)C(F)(F)F)c(C(=O)Nc3nc(OC)ncc3F)cc2F)c1=O` [Example 82, 6-[4-Ethyl-3-(hydroxymethyl)-5-oxo-1,2,4-triazol-1-yl]-5-fluoro-N-(5-fluoro-2-methoxy-pyrimidin-4-yl)-2-[(1S)-2,2,2-trifluoro-1-methyl-ethoxy]pyridine-3-carboxamide], the EC50 was above 100 nM in assay [1] and 729 nM in assay [2].

With `CCn1c(CO)nn(-c2nc(O[C@@H](C)C(F)(F)F)c(C(=O)Nc3cc(F)cnc3Cl)cc2F)c1=O` [Example 78, N-(2-Chloro-5-fluoro-3-pyridyl)-6-[4-ethyl-3-(hydroxymethyl)-5-oxo-1,2,4-triazol-1-yl]-5-fluoro-2-[(1S)-2,2,2-trifluoro-1-methyl-ethoxy]pyridine-3-carboxamide], the EC50 came to 25 nM in assay [1] and 12.3 nM in assay [2].

As to `CCn1c(CO)nn(-c2nc(O[C@@H](C)C(F)(F)F)c(C(=O)Nc3c(C)ccnc3F)cc2F)c1=O` [Example 42, (S)-6-(4-Ethyl-3-(hydroxymethyl)-5-oxo-4,5-dihydro-1H-1,2,4-triazol-1-yl)-5-fluoro-N-(2-fluoro-4-methylpyridin-3-yl)-2-((1,1,1-trifluoropropan-2-yl)oxy)nicotinamide], the figures for the EC50 in assay [1] and in assay [2] were 4.3 nM and 2.4 nM, respectively.

With `CCn1c(CO)nn(-c2nc(OC(C)C)c(C(=O)Nc3c(F)cccc3Cl)cc2F)c1=O` [Example 7, N-(2-Chloro-6-fluorophenyl)-6-(4-ethyl-3-(hydroxymethyl)-5-oxo-4,5-dihydro-1H-1,2,4-triazol-1-yl)-5-fluoro-2-isopropoxynicotinamide], the results for the EC50 in assay [1] and in assay [2] were 0.219 nM and 0.5 nM, respectively.

Consider `CCn1c(CF)nn(-c2nc(OC(C)C)c(C(=O)Nc3c(C)n[nH]c3Cl)cc2F)c1=O` [Example 108, N-(5-Chloro-3-methyl-1H-pyrazol-4-yl)-6-[4-ethyl-3-(fluoromethyl)-5-oxo-1,2,4-triazol-1-yl]-5-fluoro-2-isopropoxy-pyridine-3-carboxamide], for which the concentration giving a half-maximal response (EC50) in assay [1] was 0.17 nM; in assay [2], 0.851 nM.

For the molecule `CCn1c(CO)nn(-c2nc(O[C@@H](C)C(F)(F)F)c(C(=O)Nc3cc(C)cnc3Cl)cc2F)c1=O` [Example 67, (S)-N-(2-Chloro-5-methylpyridin-3-yl)-6-(4-ethyl-3-(hydroxymethyl)-5-oxo-4,5-dihydro-1H-1,2,4-triazol-1-yl)-5-fluoro-2-((1,1,1-trifluoropropan-2-yl)oxy)nicotinamide], the results for the EC50 in assay [1] and in assay [2] were 46.5 nM and 5.7 nM, respectively.

Turning to `CCn1c(CO)nn(-c2nc(O[C@@H](C)C(F)(F)F)c(C(=O)Nc3cc(OC)ccc3F)cc2F)c1=O` [Example 47, (S)-6-(4-Ethyl-3-(hydroxymethyl)-5-oxo-4,5-dihydro-1H-1,2,4-triazol-1-yl)-5-fluoro-N-(2-fluoro-5-methoxyphenyl)-2-((1,1,1-trifluoropropan-2-yl)oxy)nicotinamide], the results for the EC50 in assay [1] and in assay [2] were 6.9 nM and 13.5 nM, respectively.

On to `CCn1c(C(C)(C)O)nn(-c2nc(O[C@@H](C)C(F)(F)F)c(C(=O)Nc3c(C)n[nH]c3C(F)(F)F)cc2F)c1=O` [Example 128, 6-[4-Ethyl-3-(1-hydroxy-1-methyl-ethyl)-5-oxo-1,2,4-triazol-1-yl]-5-fluoro-N-[3-methyl-5-(trifluoromethyl)-1H-pyrazol-4-yl]-2-[(1S)-2,2,2-trifluoro-1-methyl-ethoxy]pyridine-3-carboxamide], for which the EC50 in assay [1] is 4.46 nM; in assay [2] it was 9.55 nM.

As to `CCn1c(CO)nn(-c2nc(O[C@@H](C)C(F)(F)F)c(C(=O)Nc3c(C)ncnc3Cl)cc2F)c1=O` [Example 38, (S)-N-(4-Chloro-6-methylpyrimidin-5-yl)-6-(4-ethyl-3-(hydroxymethyl)-5-oxo-4,5-dihydro-1H-1,2,4-triazol-1-yl)-5-fluoro-2-((1,1,1-trifluoropropan-2-yl)oxy)nicotinamide], the concentration for a half-maximal effect (EC50) in assay [1] was above 100 nM; in assay [2] it was 2390 nM.

Regarding `CCn1c(CO)nn(-c2nc(O[C@@H](C)C(F)(F)F)c(C(=O)Nc3c(Cl)cnc(OC)c3C)cc2F)c1=O` [Example 110, N-(5-Chloro-2-methoxy-3-methyl-4-pyridyl)-6-[4-ethyl-3-(hydroxymethyl)-5-oxo-1,2,4-triazol-1-yl]-5-fluoro-2-[(1S)-2,2,2-trifluoro-1-methyl-ethoxy]pyridine-3-carboxamide], the EC50 in assay [1] was found to be 0.282 nM; in assay [2] it was 0.367 nM.

With `CCCn1c(CF)nn(-c2nc(O[C@@H](C)C(F)(F)F)c(C(=O)Nc3c(C)n[nH]c3Cl)cc2F)c1=O` [Example 99, N-(5-Chloro-3-methyl-1H-pyrazol-4-yl)-5-fluoro-6-[3-(fluoromethyl)-5-oxo-4-propyl-1,2,4-triazol-1-yl]-2-[(1S)-2,2,2-trifluoro-1-methyl-ethoxy]pyridine-3-carboxamide], the EC50 turned out to be 0.38 nM in assay [1] and 0.975 nM in assay [2].
